{
  "source": "patent US11820773B2",
  "about": "“Tricyclic compounds” (ALIGOS THERAPEUTICS, INC., priority 2020, dated 2023)",
  "data": [
    {"tested_on": "HBV", "experiment": "HBV-DNA antiviral assay using HepG2.117 cells (intracellular HBV DNA by qPCR)", "format": "cell-based, genotype D HBV", "settings": "HBV DNA inhibition, 3 days incubation, 2% DMSO", "description": "(§1) The following assay procedure describes the HBV antiviral assay, using HepG2.117 cells, which carry a stably integrated genotype D HBV genome under the control of a Tet-off promoter, and intracellular HBV DNA quantification as endpoint. Cell viability is assessed in parallel by measuring the intracellular ATP content using CellTiter-Glo 2.0 (Promega).\n(§2) On day 0, HepG2.117 cells (which are maintained in routine cell culture with doxycycline present in the medium at a final concentration of 1 μg/mL) were seeded in 96-well plates (white with clear bottom) at a density of 2.0×10^4 cells/well (0.1 mL/well) in medium without doxycycline to induce pgRNA transcription and subsequent formation of HBV particles. The cells were incubated at 37° C. and 5% CO2.\n(§3) On day 1, medium was removed from each well, the test articles were diluted in culture medium without doxcycyline and 100 μL was added to cell culture wells (9 concentrations, 4-fold dilution). For each plate, 6 untreated (merely DMSO) wells were included. The final concentration of DMSO in the culture medium was 2%. Each plate was prepared in duplicate (one for HBV DNA extraction, one for CellTiter-Glo 2.0 measurement). The cells were incubated at 37° C. and 5% CO2 for 3 days.\n(§4) On day 4, cell viability was assessed using CellTiter-Glo 2.0 and cell lysates were prepared for HBV DNA extraction and subsequent quantification by qPCR.\n(§5) HBV DNA Quantification by qPCR\n(§6) Medium was removed from each well and 100 μL of 0.33% NP-40 in H2O was added to each well. Plates were sealed, incubated at 4° C. for 5 mins, vortexed extensively and centrifuged briefly. Next, 35 μL of lysate was added to 65 μL QuickExtract DNA Extraction Solution (Epicentre) in a PCR plate for each well. PCR plate was incubated at 65° C. for 6 mins, 98° C. for 2 mins and finally cooled to 4° C. HBV DNA was then quantified by qPCR with HBV-specific primers and probes as specified in Table 1 using the Bio-Rad SSOAdvanced Universal Probes Supermix on a CFX96 machine (Bio-Rad). The PCR cycle program consisted of 95° C. for 3 mins, followed by 40 cycles at 95° C. for 10 sec and 60° C. for 30 sec.\n(§7) A DNA standard was prepared by dilution of an IDT gBlock corresponding to the amplicon with concentrations ranging from 10^2 to 10^8 copies/input (i.e. per 4 μL) and used to generate a standard curve by plotting Cq values vs. HBV DNA standard concentration. The quantity of HBV DNA in each sample was determined by interpolating from the standard curve.\n(§8) Cell viability was calculated as follows: % Cell viability=(luminescence value of test sample)/(average luminescence value of 2% DMSO control)×100%. HBV DNA inhibition was calculated as follows: 100−(HBV DNA copy number of test sample)/(average HBV DNA copy number of 2% DMSO control)×100%. No normalization to entecavir was required due to the excellent dynamic window of this assay. The CC50, EC50 and EC90 values were determined by dose-response curves fitted by GraphPad Prism using “log (agonist) vs. response—Variable slope”.", "units": {"EC50": "nM"}, "values": [
      {"compound": "CNC(=O)c1ccc(-n2c(=O)c3c(n4ncc(CC5CC5)c24)CN(C(=O)c2ccc(Br)c(C(F)(F)F)c2)C(C)C3)cc1", "note": "(racemic) [Compound 21b, N-methyl-4-[rac-(11S)-12-[4-bromo-3-(trifluoromethyl)benzoyl]-5-(cyclopropylmethyl)-11-methyl-8-oxo-2,3,7,12-tetrazatricyclo[7.4.0.0^2,6]trideca-1(9),3,5-trien-7-yl]benzamide]", "EC50": "50 to 500"}
    ]},
    {"tested_on": "HBV", "experiment": "HBV-DNA antiviral assay using HepG2.117 cells (intracellular HBV DNA by qPCR)", "format": "cell-based, genotype D HBV", "settings": "Hepatitis B virus, 72 h, HBV DNA inhibition, 3 days incubation, 2% DMSO", "description": "as §1, §2, §3, §4, §5, §6, §7, §8", "units": {"EC50": "nM"}, "values": [
      {"compound": "Cc1cnn(-c2ccc(-n3c(=O)c4c(n5ncc(Cc6ccccc6)c35)CN(C(=O)c3ccc(Br)c(C(F)(F)F)c3)[C@H](C)C4)cc2)n1", "note": "(stereo in doubt) [Compound 79a, rac-(11R)-5-benzyl-12-[4-bromo-3-(trifluoromethyl)benzoyl]-11-methyl-7-[4-(4-methyltriazol-2-yl)phenyl]-2,3,7,12-tetrazatricyclo[7.4.0.0^2,6]trideca-1(9),3,5-trien-8-one]", "EC50": "< 50"},
      {"compound": "CNC(=O)c1cnc(-n2c(=O)c3c(n4ncc(CC(C)C)c24)CN(C(=O)c2ccc(Br)c(C(F)(F)F)c2)[C@@H](C)C3)cn1", "note": "(stereo in doubt) [Compound 89b, [rac-(11S)-12-[4-bromo-3-(trifluoromethyl)benzoyl]-5-isobutyl-11-methyl-8-oxo-2,3,7,12-tetrazatricyclo[7.4.0.0^2,6]trideca-1(9),3,5-trien-7-yl]pyrazine-2-carboxamide]", "EC50": "50 to 500"},
      {"compound": "O=C(c1ccc(Br)c(Cl)c1)N1CCc2c(n3ncc(Cc4ccccc4)c3n(-c3ccc(-n4ccc(C(F)(F)F)n4)cc3)c2=O)C1", "note": "[Compound 13, 5-benzyl-12-(4-bromo-3-chloro-benzoyl)-7-[4-[3-(trifluoromethyl)pyrazol-1-yl]phenyl]-2,3,7,12-tetrazatricyclo[7.4.0.0^2,6]trideca-1(9),3,5-trien-8-one]", "EC50": "50 to 500"},
      {"compound": "CNC(=O)c1ccc(-n2c(=O)c3c(n4ncc(Cc5ccccc5)c24)CN(C(=O)c2ccc(Br)c(C(F)(F)F)c2)[C@H](C)C3)nc1", "note": "(stereo in doubt) [Compound 109a, N-methyl-6-[rac-(11R)-5-benzyl-12-[4-bromo-3-(trifluoromethyl)benzoyl]-11-methyl-8-oxo-2,3,7,12-tetrazatricyclo[7.4.0.0^2,6]trideca-1(9),3,5-trien-7-yl]pyridine-3-carboxamide]", "EC50": "50 to 500"},
      {"compound": "Cc1nn[nH]c1-c1ccc(-n2c(=O)c3c(n4ncc(CC(C)C)c24)CN(C(=O)c2ccc(Br)c(Cl)c2)[C@@H](C)C3)cc1", "note": "(stereo in doubt) [Compound 64b, rac-(11S)-12-(4-bromo-3-chloro-benzoyl)-5-isobutyl-11-methyl-7-[4-(4-methyl-1H-triazol-5-yl)phenyl]-2,3,7,12-tetrazatricyclo[7.4.0.0^2,6]trideca-1(9),3,5-trien-8-one]", "EC50": "50 to 500"},
      {"compound": "CNC(=O)c1ccc(-n2c(=O)c3c(n4ncc(CC5CC5)c24)CN(C(=O)c2ccc(Br)c(Cl)c2)[C@H](C)C3)cc1", "note": "(stereo in doubt) [Compound 22a, N-methyl-4-[rac-(11R)-12-[4-bromo-3-chlorobenzoyl]-5-(cyclopropylmethyl)-11-methyl-8-oxo-2,3,7,12-tetrazatricyclo[7.4.0.0^2,6]trideca-1(9),3,5-trien-7-yl]benzamide]", "EC50": "< 50"},
      {"compound": "Cc1cnn(-c2ccc(-n3c(=O)c4c(n5ncc(CC(C)C)c35)CN(C(=O)c3ccc(Br)c(C(F)(F)F)c3)[C@@H](C)C4)cc2)c1", "note": "(stereo in doubt) [Compound 98b, rac-(11S)-12-[4-bromo-3-(trifluoromethyl)benzoyl]-5-isobutyl-11-methyl-7-[4-(4-methylpyrazol-1-yl)phenyl]-2,3,7,12-tetrazatricyclo[7.4.0.0^2,6]trideca-1(9),3,5-trien-8-one]", "EC50": "50 to 500"},
      {"compound": "CNC(=O)c1ccc(-n2c(=O)c3c(n4ncc(CC(C)C)c24)CN(C(=O)c2ccc(Br)c(Cl)c2)[C@@H](C)C3)cc1", "note": "(stereo in doubt) [Compound 55b, N-methyl-4-[rac-(11S)-12-(4-bromo-3-chloro-benzoyl)-5-isobutyl-11-methyl-8-oxo-2,3,7,12-tetrazatricyclo[7.4.0.0^2,6]trideca-1(9),3,5-trien-7-yl]benzamide]", "EC50": "50 to 500"},
      {"compound": "C[C@@H]1Cc2c(n3ncc(Cc4ccccc4)c3n(-c3ccc(-n4nnnc4C(F)(F)F)cc3)c2=O)CN1C(=O)c1ccc(Br)c(C(F)(F)F)c1", "note": "[Compound 87, 5-benzyl-12-[4-bromo-3-(trifluoromethyl)benzoyl]-11-methyl-7-[4-[5-(trifluoromethyl)tetrazol-1-yl]phenyl]-2,3,7,12-tetrazatricyclo[7.4.0.0^2,6]trideca-1(9),3,5-trien-8-one]", "EC50": "50 to 500"},
      {"compound": "CNc1n[nH]c2cc(-n3c(=O)c4c(n5ncc(CC6CC6)c35)CN(C(=O)c3ccc(Br)c(Cl)c3)CC4)ccc12", "note": "[Compound 27, 12-(4-bromo-3-chloro-benzoyl)-5-(cyclopropylmethyl)-7-[3-(methylamino)-1H-indazol-6-yl]-2,3,7,12-tetrazatricyclo[7.4.0.0^2,6]trideca-1(9),3,5-trien-8-one]", "EC50": "< 50"},
      {"compound": "Cc1nn[nH]c1-c1ccc(-n2c(=O)c3c(n4ncc(Cc5ccccc5)c24)CN(C(=O)c2ccc(Br)c(C(F)(F)F)c2)[C@H](C)C3)cc1", "note": "(stereo in doubt) [Compound 80a, rac-(11R)-5-benzyl-12-[4-bromo-3-(trifluoromethyl)benzoyl]-11-methyl-7-[4-(4-methyl-1H-triazol-5-yl)phenyl]-2,3,7,12-tetrazatricyclo[7.4.0.0^2,6]trideca-1(9),3,5-trien-8-one]", "EC50": "< 50"},
      {"compound": "CNC(=O)c1cnc(-n2c(=O)c3c(n4ncc(Cc5ccccc5)c24)CN(C(=O)c2ccc(Br)c(C(F)(F)F)c2)[C@@H](C)C3)nc1", "note": "(stereo in doubt) [Compound 69b, N-methyl-2-[rac-(11S)-5-benzyl-12-[4-bromo-3-(trifluoromethyl)benzoyl]-11-methyl-8-oxo-2,3,7,12-tetrazatricyclo[7.4.0.0^2,6]trideca-1(9),3,5-trien-7-yl]pyrimidine-5-carboxamide]", "EC50": "< 50"},
      {"compound": "C[C@H]1Cc2c(n3ncc(CC4CCC4)c3n(-c3ccc(-c4nncn4C)cc3)c2=O)CN1C(=O)c1ccc(Cl)c(C(F)(F)F)c1", "note": "(stereo in doubt) [Compound 51b, rac-(11S)-12-[4-chloro-3-(trifluoromethyl)benzoyl]-5-(cyclobutylmethyl)-11-methyl-7-[4-(4-methyl-1,2,4-triazol-3-yl)phenyl]-2,3,7,12-tetrazatricyclo[7.4.0.0^2,6]trideca-1(9),3,5-trien-8-one]", "EC50": "500 to 5000"},
      {"compound": "C[C@H]1Cc2c(n3ncc(Cc4ccccc4)c3n(-c3ccc(-c4ncnn4C)cc3)c2=O)CN1C(=O)c1ccc(Br)c(C(F)(F)F)c1", "note": "(stereo in doubt) [Compound 49b, rac-(11S)-5-benzyl-12-[4-bromo-3-(trifluoromethyl)benzoyl]-11-methyl-7-[4-(2-methyl-1,2,4-triazol-3-yl)phenyl]-2,3,7,12-tetrazatricyclo[7.4.0.0^2,6]trideca-1(9),3,5-trien-8-one]", "EC50": "50 to 500"},
      {"compound": "CNC(=O)c1ccc(-n2c(=O)c3c(n4ncc(CC5CCC5)c24)CN(C(=O)c2ccc(Br)c(C(F)(F)F)c2)[C@H](C)C3)cc1", "note": "(stereo in doubt) [Compound 37a, N-methyl-4-[rac-(11R)-12-[4-bromo-3-(trifluoromethyl)benzoyl]-5-(cyclobutylmethyl)-11-methyl-8-oxo-2,3,7,12-tetrazatricyclo[7.4.0.0^2,6]trideca-1(9),3,5-trien-7-yl]benzamide]", "EC50": "< 50"},
      {"compound": "C[C@H]1Cc2c(n3ncc(Cc4ccccc4)c3n(-c3ccc(-c4nncn4C)cc3)c2=O)CN1C(=O)c1ccc(Br)c(C(F)(F)F)c1", "note": "(stereo in doubt) [Compound 39b, rac-(11S)-5-benzyl-12-[4-bromo-3-(trifluoromethyl)benzoyl]-11-methyl-7-[4-(4-methyl-1,2,4-triazol-3-yl)phenyl]-2,3,7,12-tetrazatricyclo[7.4.0.0^2,6]trideca-1(9),3,5-trien-8-one]", "EC50": "50 to 500"}
    ]}
  ]
}
